Source: patent US10435399B2, “HDAC6 inhibitory heterocyclic compound” (TAKEDA PHARMACEUTICAL COMPANY LIMITED, priority 2017, dated 2019)

Target: T1, HDAC6 enzyme (Homo sapiens, UniProt Q9UBN7)
T1 construct: transducing full length HDAC6 gene into Sf-9 insect cells; GST; purchased SignalChem; host or cells: Sf-9 insect cells
T1 sequence (Q9UBN7 1-1215): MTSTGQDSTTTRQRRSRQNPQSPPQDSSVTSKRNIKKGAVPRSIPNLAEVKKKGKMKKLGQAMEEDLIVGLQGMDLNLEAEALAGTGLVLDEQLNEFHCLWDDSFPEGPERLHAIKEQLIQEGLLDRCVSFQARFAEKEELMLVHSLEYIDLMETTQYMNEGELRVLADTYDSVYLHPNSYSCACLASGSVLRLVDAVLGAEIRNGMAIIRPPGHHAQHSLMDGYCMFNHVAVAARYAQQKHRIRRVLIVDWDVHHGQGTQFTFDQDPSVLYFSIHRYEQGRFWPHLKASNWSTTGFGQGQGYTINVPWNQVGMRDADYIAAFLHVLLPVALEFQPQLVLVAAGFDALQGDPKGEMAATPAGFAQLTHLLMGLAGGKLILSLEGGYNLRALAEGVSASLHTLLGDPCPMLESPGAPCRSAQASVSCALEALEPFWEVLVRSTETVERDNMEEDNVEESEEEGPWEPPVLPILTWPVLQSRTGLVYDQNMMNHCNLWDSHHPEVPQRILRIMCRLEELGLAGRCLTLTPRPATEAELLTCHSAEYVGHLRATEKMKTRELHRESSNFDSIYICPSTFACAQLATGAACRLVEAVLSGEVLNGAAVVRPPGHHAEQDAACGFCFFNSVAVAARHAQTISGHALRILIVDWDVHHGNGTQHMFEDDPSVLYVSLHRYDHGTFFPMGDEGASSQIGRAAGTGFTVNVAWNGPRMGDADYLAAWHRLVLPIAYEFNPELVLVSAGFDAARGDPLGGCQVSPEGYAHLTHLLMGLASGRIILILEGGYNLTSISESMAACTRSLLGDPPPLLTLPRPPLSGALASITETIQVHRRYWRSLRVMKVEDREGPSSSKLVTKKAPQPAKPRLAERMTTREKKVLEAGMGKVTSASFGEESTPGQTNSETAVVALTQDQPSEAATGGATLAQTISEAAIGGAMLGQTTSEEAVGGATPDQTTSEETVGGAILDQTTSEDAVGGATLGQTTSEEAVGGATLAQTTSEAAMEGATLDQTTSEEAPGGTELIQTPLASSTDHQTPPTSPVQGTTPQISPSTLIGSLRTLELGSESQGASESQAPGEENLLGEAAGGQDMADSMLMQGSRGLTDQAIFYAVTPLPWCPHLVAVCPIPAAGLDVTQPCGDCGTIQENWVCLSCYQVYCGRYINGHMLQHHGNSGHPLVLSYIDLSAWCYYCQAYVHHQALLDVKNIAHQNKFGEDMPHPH
Experiment: HDAC6 enzyme inhibitory activity (HDAC-Glo I/II Assay kit)
Type: biochemical
Details: 10 μM; wells without enzyme = 100% inhibition; read-out: HDAC6 inhibitory rate (%) (10 μM)
Summary of the method: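 Test compound is preincubated 60 min at RT with full-length insect-cell HDAC6 in Tris-HCl pH 7.5 with 135 mM NaCl and 1 mM MgCl2. A 20 min room-temperature HDAC-Glo reaction follows, with luminescent read-out.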

Compound | inhibition at 10 µM [%]
Cc1ccccc1-c1ccccc1N1Cc2ccc(-c3nnc(C(F)F)o3)cc2C1=O [Example 311, 6-(5-(difluoromethyl)-1,3,4-oxadiazol-2-yl)-2-(2′-methyl-biphenyl-2-yl)isoindolin-1-one] | 99
Cc1cccc(-c2ccccc2N2Cc3ccc(-c4nnc(C(F)F)o4)cc3C2=O)c1 [Example 312, 6-(5-(difluoromethyl)-1,3,4-oxadiazol-2-yl)-2-(3′-methyl-biphenyl-2-yl)isoindolin-1-one] | 96
Cc1ccc(-c2ccccc2N2Cc3ccc(-c4nnc(C(F)F)o4)cc3C2=O)cc1 [Example 313, 6-(5-(difluoromethyl)-1,3,4-oxadiazol-2-yl)-2-(4′-methyl-biphenyl-2-yl)isoindolin-1-one] | 98
CS(=O)(=O)c1cncc(-c2ccccc2N2Cc3ccc(-c4nnc(C(F)F)o4)cc3C2=O)c1 [Example 314, 6-(5-(difluoromethyl)-1,3,4-oxadiazol-2-yl)-2-(2-(5-(methylsulfonyl)pyridin-3-yl)phenyl)isoindolin-1-one] | 101
O=C1c2cc(-c3nnc(C(F)F)o3)ccc2CN1c1ccccc1-c1cccc(OCC(F)(F)F)c1 [Example 315, 6-(5-(difluoromethyl)-1,3,4-oxadiazol-2-yl)-2-(3′-(2,2,2-trifluoroethoxy)biphenyl-2-yl)isoindolin-1-one] | 98
N#CC1(c2ccc(-c3ccccc3N3Cc4ccc(-c5nnc(C(F)F)o5)cc4C3=O)cc2)CC1 [Example 316, 1-(2′-(6-(5-(difluoromethyl)-1,3,4-oxadiazol-2-yl)-1-oxo-1,3-dihydro-2H-isoindol-2-yl)-biphenyl-4-yl)cyclopropane-carbonitrile] | 92
COCCOc1ccccc1-c1ccccc1N1Cc2ccc(-c3nnc(C(F)F)o3)cc2C1=O [Example 317, 6-(5-(difluoromethyl)-1,3,4-oxadiazol-2-yl)-2-(2′-(2-methoxyethoxy)biphenyl-2-yl)isoindolin-1-one] | 97
O=C1c2cc(-c3nnc(C(F)F)o3)ccc2CN1c1ccccc1-c1cnn(C(F)F)c1 [Example 318, 6-(5-(difluoromethyl)-1,3,4-oxadiazol-2-yl)-2-(2-(1-(difluoromethyl)-1H-pyrazol-4-yl)phenyl)isoindolin-1-one] | 98
O=C1c2cc(-c3nnc(C(F)F)o3)ccc2CN1c1ccccc1-c1cnn(C2CCOCC2)c1 [Example 319, 6-(5-(difluoromethyl)-1,3,4-oxadiazol-2-yl)-2-(2-(1-(tetrahydro-2H-pyran-4-yl)-1H-pyrazol-4-yl)phenyl)-isoindolin-1-one] | 86
Cn1nc(C(F)(F)F)cc1-c1ccccc1N1Cc2ccc(-c3nnc(C(F)F)o3)cc2C1=O [Example 320, 6-(5-(difluoromethyl)-1,3,4-oxadiazol-2-yl)-2-(2-(1-methyl-3-(trifluoromethyl)-1H-pyrazol-5-yl)phenyl)-isoindolin-1-one] | 99
COCCOc1ccc(-c2ccccc2N2Cc3ccc(-c4nnc(C(F)F)o4)cc3C2=O)cc1 [Example 321, 6-(5-(difluoromethyl)-1,3,4-oxadiazol-2-yl)-2-(4′-(2-methoxyethoxy)biphenyl-2-yl)isoindolin-1-one] | 98
O=C1c2cc(-c3nnc(C(F)F)o3)ccc2CN1c1ccccc1-c1cnc(OCC(F)(F)F)nc1 [Example 322, 6-(5-(difluoromethyl)-1,3,4-oxadiazol-2-yl)-2-(2-(2-(2,2,2-trifluoroethoxy)-pyrimidin-5-yl)phenyl)-isoindolin-1-one] | 23
O=C1c2cc(-c3nnc(C(F)F)o3)ccc2CN1c1ccccc1-c1cnn(Cc2ccccn2)c1 [Example 323, 6-(5-(difluoromethyl)-1,3,4-oxadiazol-2-yl)-2-(2-(1-(pyridin-2-ylmethyl)-1H-pyrazol-4-yl)phenyl)-isoindolin-1-one] | 97
N#CCOc1cccc(-c2ccccc2N2Cc3ccc(-c4nnc(C(F)F)o4)cc3C2=O)c1 [Example 324, ((2′-(6-(5-(difluoromethyl)-1,3,4-oxadiazol-2-yl)-1-oxo-1,3-dihydro-2H-isoindol-2-yl)biphenyl-3-yl)oxy)-acetonitrile] | 97
O=C(c1cccc(-c2ccccc2N2Cc3ccc(-c4nnc(C(F)F)o4)cc3C2=O)c1)N1CCCC1 [Example 325, 6-(5-(difluoromethyl)-1,3,4-oxadiazol-2-yl)-2-(3′-(pyrrolidin-1-ylcarbonyl)-biphenyl-2-yl)isoindolin-1-one] | 100
O=C1c2cc(-c3nnc(C(F)F)o3)cc(F)c2CN1C[C@@H]1CCCN1 [Example 326, 6-(5-(difluoromethyl)-1,3,4-oxadiazol-2-yl)-4-fluoro-2-((2S)-pyrrolidin-2-ylmethyl)-isoindolin-1-one] | 86
O=C1c2cc(-c3nnc(C(F)F)o3)cnc2CN1Cc1cccc(F)c1F [Example 327, 6-(2,3-difluorobenzyl)-3-(5-(difluoromethyl)-1,3,4-oxadiazol-2-yl)-6,7-dihydro-5H-pyrrolo[3,4-b]pyridin-5-one] | 99
O=C1c2cc(-c3nnc(C(F)F)o3)cnc2CN1Cc1ccc(F)cc1 [Example 328, 3-(5-(difluoromethyl)-1,3,4-oxadiazol-2-yl)-6-(4-fluorobenzyl)-6,7-dihydro-5H-pyrrolo[3,4-b]pyridin-5-one] | 98
O=C1c2cc(-c3nnc(C(F)F)o3)cnc2CN1Cc1c(F)cccc1F [Example 329, 6-(2,6-difluorobenzyl)-3-(5-(difluoromethyl)-1,3,4-oxadiazol-2-yl)-6,7-dihydro-5H-pyrrolo[3,4-b]pyridin-5-one] | 99
O=C1c2cc(-c3nnc(C(F)F)o3)ccc2CN1c1ccccc1-n1cccn1 [Example 330, 6-(5-(difluoromethyl)-1,3,4-oxadiazol-2-yl)-2-(2-(1H-pyrazol-1-yl)phenyl)-isoindolin-1-one] | 99
CC(C)(C)OC(=O)N1CC(F)(F)C[C@H]1CN1Cc2c(F)cc(-c3nnc(C(F)F)o3)cc2C1=O [Example 331, tert-butyl (2S)-2-((6-(5-(difluoromethyl)-1,3,4-oxadiazol-2-yl)-4-fluoro-1-oxo-1,3-dihydro-2H-isoindol-2-yl)methyl)-4,4-difluoropyrrolidine-1-carboxylate] | 97
COc1ccc(CN2Cc3ncc(-c4nnc(C(F)F)o4)cc3C2=O)cc1 [Example 332, 3-(5-(difluoromethyl)-1,3,4-oxadiazol-2-yl)-6-(4-methoxybenzyl)-6,7-dihydro-5H-pyrrolo[3,4-b]pyridin-5-one] | 99
O=C1c2cc(-c3nnc(C(F)F)o3)cnc2CN1Cc1ccc(Cl)cc1 [Example 333, 6-(4-chlorobenzyl)-3-(5-(difluoromethyl)-1,3,4-oxadiazol-2-yl)-6,7-dihydro-5H-pyrrolo[3,4-b]pyridin-5-one] | 97
O=C1c2cc(-c3nnc(C(F)F)o3)cnc2CN1Cc1ccc(C(F)(F)F)cc1 [Example 334, 3-(5-(difluoromethyl)-1,3,4-oxadiazol-2-yl)-6-(4-(trifluoromethyl)benzyl)-6,7-dihydro-5H-pyrrolo[3,4-b]pyridin-5-one] | 93
O=C1c2cc(-c3nnc(C(F)F)o3)cnc2CN1Cc1ccc(OC(F)F)cc1 [Example 335] | 101
